Results: patent US8153797B2, “Chromen-2-one derivatives and their use as monoamine neurotransmitter re-uptake inhibitors” (Neurosearch A/S, priority 2006, dated 2012)
pIC50: −log10 of the molar value. Structures can show the parent of a compound that is named as a salt. Where two headings read alike, the source gives them in different places.

Key:
[1] = target: T1, reuptake of dopamine (DA) in synaptosomes (Rattus norvegicus, UniProt P23977); assay: Inhibition of dopamine reuptake in synaptosomes; format: biochemical
T1 construct: in synaptosomes as described in WO 97/16451; from tissue; method in WO 97/16451

[2] = target: T2, reuptake of noradrenaline (NA) in synaptosomes (Rattus norvegicus, UniProt Q63380); assay: Inhibition of noradrenaline reuptake in synaptosomes; format: biochemical
T2 construct: in synaptosomes as described in WO 97/16451; from tissue; method in WO 97/16451

[3] = target: T3, reuptake of serotonine (5-HT) in synaptosomes (Rattus norvegicus, UniProt P31652); assay: Inhibition of serotonin reuptake in synaptosomes; format: biochemical
T3 construct: in synaptosomes as described in WO 97/16451; from tissue; method in WO 97/16451
Procedure: A number of compounds were tested for their ability to inhibit the reuptake of the monoamine neurotransmitters dopamine (DA) noradrenaline (NA) and serotonine (5-HT) in synaptosomes as described in WO 97/16451.
The test values are given as IC50 (the concentration (μM) of the test substance which inhibits the specific binding of ^3H-DA, ^3H-NA, or ^3H-5-HT by 50%).

[4] = 3H-5-HT, synaptosomes, read-out: 5-HT-uptake IC50

T1 sequence (P23977 whole entry): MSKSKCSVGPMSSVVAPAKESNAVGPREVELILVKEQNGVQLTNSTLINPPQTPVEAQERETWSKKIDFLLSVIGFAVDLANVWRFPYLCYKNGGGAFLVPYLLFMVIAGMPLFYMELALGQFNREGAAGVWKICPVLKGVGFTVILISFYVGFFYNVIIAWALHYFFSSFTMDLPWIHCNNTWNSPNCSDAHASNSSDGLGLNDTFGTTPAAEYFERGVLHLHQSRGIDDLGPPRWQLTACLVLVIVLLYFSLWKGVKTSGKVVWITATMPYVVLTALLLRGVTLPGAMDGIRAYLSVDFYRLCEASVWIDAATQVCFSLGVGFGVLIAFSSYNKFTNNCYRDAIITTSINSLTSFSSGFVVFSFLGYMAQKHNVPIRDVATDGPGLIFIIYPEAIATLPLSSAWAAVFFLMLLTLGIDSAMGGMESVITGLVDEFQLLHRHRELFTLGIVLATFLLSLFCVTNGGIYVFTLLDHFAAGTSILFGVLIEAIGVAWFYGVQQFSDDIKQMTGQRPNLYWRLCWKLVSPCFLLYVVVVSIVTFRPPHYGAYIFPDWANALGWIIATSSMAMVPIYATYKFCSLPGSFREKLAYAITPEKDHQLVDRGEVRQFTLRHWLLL
T2 sequence (Q63380 1-617): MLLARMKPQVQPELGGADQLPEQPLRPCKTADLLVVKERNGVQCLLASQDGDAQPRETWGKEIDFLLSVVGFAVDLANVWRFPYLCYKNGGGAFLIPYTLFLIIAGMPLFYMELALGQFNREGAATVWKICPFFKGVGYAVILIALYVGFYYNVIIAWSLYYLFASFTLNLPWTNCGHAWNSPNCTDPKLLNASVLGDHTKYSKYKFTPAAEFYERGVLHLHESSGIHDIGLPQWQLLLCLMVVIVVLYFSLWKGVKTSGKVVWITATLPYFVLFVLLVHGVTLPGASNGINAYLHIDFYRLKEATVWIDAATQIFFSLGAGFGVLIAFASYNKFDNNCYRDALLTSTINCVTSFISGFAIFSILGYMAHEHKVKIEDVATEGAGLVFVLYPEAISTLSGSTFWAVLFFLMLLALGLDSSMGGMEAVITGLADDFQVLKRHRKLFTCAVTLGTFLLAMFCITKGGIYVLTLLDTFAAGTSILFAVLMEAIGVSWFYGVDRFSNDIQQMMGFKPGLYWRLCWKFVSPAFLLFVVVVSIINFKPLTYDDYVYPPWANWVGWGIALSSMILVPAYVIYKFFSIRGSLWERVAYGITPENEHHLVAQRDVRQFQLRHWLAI
T3 sequence (P31652 whole entry): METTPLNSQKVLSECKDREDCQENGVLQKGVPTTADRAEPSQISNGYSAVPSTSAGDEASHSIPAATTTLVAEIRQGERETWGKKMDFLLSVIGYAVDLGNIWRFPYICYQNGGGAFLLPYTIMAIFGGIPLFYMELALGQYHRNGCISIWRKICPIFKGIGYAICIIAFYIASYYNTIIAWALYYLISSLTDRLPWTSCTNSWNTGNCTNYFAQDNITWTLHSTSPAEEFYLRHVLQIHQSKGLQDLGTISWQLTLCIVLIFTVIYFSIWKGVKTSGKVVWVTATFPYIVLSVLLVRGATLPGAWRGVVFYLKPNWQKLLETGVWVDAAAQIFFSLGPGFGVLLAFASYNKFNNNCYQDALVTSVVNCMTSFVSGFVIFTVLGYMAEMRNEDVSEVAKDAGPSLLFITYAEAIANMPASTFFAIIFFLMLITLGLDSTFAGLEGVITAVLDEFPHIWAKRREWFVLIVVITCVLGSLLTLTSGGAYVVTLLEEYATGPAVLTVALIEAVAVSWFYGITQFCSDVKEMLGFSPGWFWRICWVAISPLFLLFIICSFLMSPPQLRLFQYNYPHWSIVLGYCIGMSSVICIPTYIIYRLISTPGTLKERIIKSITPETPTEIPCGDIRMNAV

Row | SMILES | pIC50 ([1]; 3H-DA, synaptosomes, read-out: DA-uptake IC50) | pIC50 ([2]; 3H-NA, synaptosomes, read-out: NA-uptake IC50) | pIC50 [3, 4] | melting point | pIC50 [1] | pIC50 [2] | pIC50 [3]
1 | CN1[C@@H]2CC[C@H]1C[C@H](Oc1ccc3cc(Br)c(=O)oc3c1)C2 [First compound of Method 2B, exo-3-Bromo-7-(8-methyl-8-aza-bicyclo[3.2.1]oct-3-yloxy)-chromen-2-one hydrochloric acid salt] | 7.36 | 7.77 | 8.92 |  |  |  | 
2 | CN1[C@@H]2C=C[C@H]1C[C@H](Oc1ccc3ccc(=O)oc3c1)C2 (as salt: hydrochloric acid salt) [First compound of Method 4B, exo-7-(8-Methyl-8-aza-bicyclo[3.2.1]oct-6-en-3-yloxy)-chromen-2-one hydrochloric acid salt] |  |  |  | > 275 °C |  |  | 
3 | O=c1oc2cc(O[C@@H]3C[C@H]4CC[C@@H](C3)N4)ccc2cc1Cl [Second last compound of Method 2B, exo-7-(8-Aza-bicyclo[3.2.1]oct-3-yloxy)-3-chloro-chromen-2-one hydrochloric acid salt] |  |  | 9.23 |  | 7.27 | 7.85 | 
4 | CN1[C@@H]2C=C[C@H]1C[C@H](Oc1ccc3ccc(=O)oc3c1)C2 [First compound of Method 4B, exo-7-(8-Methyl-8-aza-bicyclo[3.2.1]oct-6-en-3-yloxy)-chromen-2-one hydrochloric acid salt] |  |  |  |  | 6.15 | 6.14 | 7.44
